From PubChem BioAssay AID2060620 (Molecular Pharmacology Branch, DTP, NCI, 2025)
Where “and” joins values, the source holds several entries; their conditions need not be identical. Identical values can stand only once.

Test system: 328373-195-R-J1-PDC complex spheroids, viability % test/control
Test: Anticancer human tumor 328373-195-R-J1-PDC patient-derived head and neck squamous carcinoma cell line growth inhibition [CLK]
Details: for viability, T/C: stronger effect = lower value
Excerpt: A high-throughput screen of multi-cell type tumor spheroids was designed to identify active combinations of […] and targeted small molecules. Complex spheroids include a stromal component modeled by human endothelial cells (HUVEC) and fibroblasts modeled by human mesenchymal stem cells (MSCs). The concentration ranges selected for each drug and investigational agent were based upon clinically achievable concentrations if the clinical Cmax of the agent was known.
Compounds. The drugs and investigational agents: cirtuvivint (SM08502; NSC835563), CC-671 (NSC850746), vemurafenib (NSC761431), tapotoclax (NSC804041), sotorasib (NSC818433), adagrasib (NSC831453), MRTX-1133 (NSC836407), BAY2416964 (NSC825713), copanlisib (NSC816437), inavolisib (NSC800729), abemaciclib (NSC768073), osimertinib (NSC779217), entinostat (NSC756642), eltanexor (KPT-8602, NSC794443), venetoclax (NSC766270), ceralasertib (NSC777638), bortezomib (NSC756655), olaparib (NSC753686), talazoparib (NSC767125), alisertib (NSC759677), peposertib (NSC802822), gemcitabine (NSC613327), 5-fluorouracil (NSC19893), SN-38 (NSC673596), oxaliplatin (NSC266046), paclitaxel (NSC125973), and doxorubicin (NSC123127), were obtained from the National Cancer Institute (NCI) Developmental Therapeutics Program Chemical Repository. The FDA-approved anticancer drug set is available from the Developmental Therapeutics Program at https://dtp.cancer.gov/organization/dscb/obtaining/available plates.htm. […] The stock solutions were prepared in dimethyl sulfoxide (DMSO, Sigma-Aldrich, St. Louis, MO, cat. D2650), except for the platinum complexes which were prepared in saline (Quality Biological, Gaithersburg, MD, cat. 114-055-101), at 800-fold the tested concentration and stored at -70 degrees C prior to their use. All drugs and investigational agents were tested over a range starting from a high concentration at or near the clinical Cmax and decreasing in half-log increments. If the clinical Cmax for an agent had not been determined, the highest concentration tested was 10 microM.
Cell Culture. All cells were maintained in an incubator at 37 degrees C and 5% CO2 with 95% humidity. The PDC lines were cultured according to standard operating procedures established by the NCI PDMR. Briefly, all PDCs were thawed and cultured in Matrigel-coated flasks prepared with a working solution of 1X Ham's F-12 nutrient mix, without supplementation (Invitrogen, Waltham, MA, cat. 11765054), 100 U/mL penicillin-streptomycin (Invitrogen, cat. 15140122), and 2.5% Matrigel (Corning Inc., Corning, NY, cat. 354248) for the first three passages. The 947758-054-R-J2-PDC line was cultured in 6B/Colon 1A media, which includes advanced DMEM/F-12 (Thermo Fisher Scientific, cat. 12634028), 10 mM HEPES (Thermo Fisher Scientific, cat. 15630080), 1X GlutaMAX supplement (Thermo Fisher Scientific, cat. 35050061), 0.1 mg/mL primocin (InvivoGen, cat. ant-pm-2), 10% defined fetal bovine serum, heat inactivated (HyClone Laboratories Inc., cat. SH30070.03HI), 1.25 mM N-Acetyl-L-cysteine (Sigma-Aldrich, cat. A9165), 10 mM nicotinamide (Sigma-Aldrich, cat. N0636), 1X B-27 supplement (Thermo Fisher Scientific, cat. 17504044), 1X N-2 supplement (Thermo Fisher Scientific, cat. 17502048), and 10 microM Y-27632 dihydrochloride (Tocris Bioscience, cat. 1254). The 876862-298-R-J1-PDC was cultured in 6E media, which includes all 6B/Colon 1A media components plus 50% L-WRN conditioned media (ATCC, cat. CRL-3276), 50 ng/mL recombinant human EGF recombinant protein (hEGF; Thermo Fisher Scientific, cat. PHG0311), 10 ng/mL recombinant human fibroblast growth factor 10 (hGFG-10; PeproTech, cat. 100-26), 1 ng/mL recombinant human fibroblast growth factor 2 (hFGF-2; PeproTech, cat. 100-18B), and 1 µM prostaglandin E2 (PGE2; Tocris, cat. 2296). The 227483-062-R1-J1-PDC line was cultured in Panc media, containing all 6E components except hFGF-2, with the addition of 500 nM SB-431542 (Selleckchem, cat. S1067) and 10 nM gastrin (Tocris, cat. 3006). […]
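Also: spheroids exposed to the agents for 7 days.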

| Compound | IC50 (curve of compound) | viability, T/C (compound 0.0316 µM) | viability, T/C (compound 0.1 µM) | viability, T/C (compound 0.316 µM) | viability, T/C (compound 1 µM) | viability, T/C (compound 3.16 µM) | viability, T/C (compound 10 µM) | other results |
| --- | --- | --- | --- | --- | --- | --- | --- | --- |
| CC(=O)O[C@H]1C(=O)[C@@]2(C)[C@H]([C@H](OC(=O)c3ccccc3)[C@]3(O)C[C@H](OC(=O)[C@H](O)[C@@H](NC(=O)c4ccccc4)c4ccccc4)C(C)=C1C3(C)C)[C@]1(OC(C)=O)CO[C@@H]1C[C@@H]2O | < 0.0316 µM | 10.2% and 4.45% | 5.56% and 4.34% | 5.87% and 5.98% | 10.8% and 8.33% | 14.6% and 9.57% | 14.7% and 10.1% |  |
| CC(C)CC(NC(=O)C(Cc1ccccc1)NC(=O)c1cnccn1)B(O)O (stereo not drawn) | 0.00176 µM and 0.00186 µM |  |  |  |  |  |  | viability, T/C (compound 0.000949 µM): 97.8% and 115%; viability, T/C (compound 0.003 µM): 8.65% and 3.9%; viability, T/C (compound 0.00949 µM): 1.43% and 0.2%; viability, T/C (compound 0.03 µM): 1.56% and 0.3%; viability, T/C (compound 0.0949 µM): 0.16%; viability, T/C (compound 0.3 µM): 0.85% and 0.2% |
| CC(Nc1ccc2c(c1)OCCn1cc(N3C(=O)OCC3C(F)F)nc1-2)C(N)=O (stereo not drawn) | 4.34 µM and 6.46 µM | 86% and 91.1% | 76.5% and 86.9% | 77.7% and 75.1% | 73.9% and 78.2% | 53.4% and 56.5% | 40% and 44.6% |  |
| CCCS(=O)(=O)Nc1ccc(F)c(C(=O)c2c[nH]c3ncc(-c4ccc(Cl)cc4)cc23)c1F | > 10 µM | 99.5% and 99.4% | 91.2% and 92.6% | 92.8% and 95.1% | 91.2% and 83.6% | 92.6% and 94.8% | 82.3% and 109% |  |
| CCc1c2c(nc3ccc(O)cc13)-c1cc3c(c(=O)n1C2)COC(=O)[C@]3(O)CC | < 0.00316 µM | 1.41% and 1.91% | 3.19% and 1.33% | 1.53% and 0.43% | 2.07% and 1.46% |  |  | viability, T/C (compound 0.00316 µM): 12.7% and 12.1%; viability, T/C (compound 0.01 µM): 3.27% and 1.07% |
| CN1CCN(c2cc(C(=O)Nc3cc4cc(-c5cnn(C)c5)ccc4cn3)ccn2)CC1 |  | 102% [middle of 12 runs] | 87.1% [middle of 12 runs] | 30.6% [middle of 12 runs] | 2.6% [middle of 12 runs] | 1.02% [middle of 12 runs] | 0.18% [middle of 11 runs] | IC50 (compound alone, run of 08/14/2023): 209 nM [middle of 12 runs] |
| Cn1ncnc1[C@H]1c2n[nH]c(=O)c3cc(F)cc(c23)N[C@@H]1c1ccc(F)cc1 | > 0.1 µM | 95.3% and 107% | 73% and 77.7% |  |  |  |  | viability, T/C (compound 0.000316 µM): 98.5% and 113%; viability, T/C (compound 0.001 µM): 72.2% and 90.1%; viability, T/C (compound 0.00316 µM): 90.6% and 93.4%; viability, T/C (compound 0.01 µM): 84.6% and 92.9% |
| NC(=O)C(=Cn1cnc(-c2cc(C(F)(F)F)cc(C(F)(F)F)c2)n1)c1cncnc1 | 0.0211 µM and 0.0198 µM |  |  |  |  |  |  | viability, T/C (compound 0.00949 µM): 76.3% and 71.8%; viability, T/C (compound 0.03 µM): 38.3% and 37.8%; viability, T/C (compound 0.0949 µM): 2.22% and 0.66%; viability, T/C (compound 0.3 µM): 1.05% and 0.37%; viability, T/C (compound 0.949 µM): 0.16% and 0.11%; viability, T/C (compound 3 µM): 1.51% and 0.06% |
| Nc1ccccc1NC(=O)c1ccc(CNC(=O)OCc2cccnc2)cc1 | 0.515 µM and 0.299 µM | 87.1% and 84.6% | 71.8% and 68.4% | 54.6% and 49.4% | 38.6% and 28.9% | 31.2% and 21.1% | 7.32% and 4.87% |  |
| Nc1ccn(C2OC(CO)C(O)C2(F)F)c(=O)n1 (stereo not drawn) | < 0.0316 µM | 4.83% and 1.9% | 2.69% and 2.98% | 2.89% and 2.37% | 2.8% and 3.02% | 2.26% and 2.69% | 2.3% and 1.66% |  |
| O=c1[nH]cc(F)c(=O)[nH]1 | 0.0356 µM and 0.0449 µM | 54% and 64.5% | 14.5% and 17.4% | 11.9% and 9.36% | 6.67% and 7.09% | 8.84% and 8.77% | 14.9% and 15.6% |  |

More lines, main results first:

| IC50 (curve of compound) | Compound | viability, T/C (compound 0.0316 µM) | viability, T/C (compound 0.1 µM) | viability, T/C (compound 0.316 µM) | viability, T/C (compound 1 µM) | viability, T/C (compound 3.16 µM) | viability, T/C (compound 10 µM) | other results |
| --- | --- | --- | --- | --- | --- | --- | --- | --- |
| > 10 µM | C#Cc1c(F)ccc2cc(O)cc(-c3ncc4c(N5CC6CCC(C5)N6)nc(OCC56CCCN5CC(F)C6)nc4c3F)c12 (stereo not drawn) | 99.7% and 97.3% | 85.4% and 93.6% | 108% and 98.6% | 96.1% and 92.8% | 118% and 111% | 89.6% and 94.6% |  |
| 3.42 µM and 3.75 µM | C=C(F)C(=O)N1CCN(c2nc(OCC3CCCN3C)nc3c2CCN(c2cccc4cccc(Cl)c24)C3)CC1CC#N (stereo not drawn) | 94.1% and 94.7% | 89.7% and 93.1% | 77.7% and 114% | 90.5% and 84.6% | 53.7% and 59.2% | 0.17% and 3% |  |
| > 10 µM | C=CC(=O)N1CCN(c2nc(=O)n(-c3c(C)ccnc3C(C)C)c3nc(-c4c(O)cccc4F)c(F)cc23)C(C)C1 (stereo not drawn) | 84.3% and 93.1% | 89.4% and 95.1% | 93.2% and 106% | 98.8% and 87.5% | 96.5% and 100% | 77.4% and 74.5% |  |
| > 0.3 µM | C=CC(=O)Nc1cc(Nc2nccc(-c3cn(C)c4ccccc34)n2)c(OC)cc1N(C)CCN(C)C |  |  |  |  |  |  | viability, T/C (compound 0.000949 µM): 97.9% and 96%; viability, T/C (compound 0.003 µM): 96.8% and 91.2%; viability, T/C (compound 0.00949 µM): 94% and 91.6%; viability, T/C (compound 0.03 µM): 94.2% and 92.4%; viability, T/C (compound 0.0949 µM): 83.8% and 91.1%; viability, T/C (compound 0.3 µM): 91.3% and 84.8% |
| > 10 µM | CC(CO)NC(=O)c1cc(-c2ccc(Cl)cc2)nn(-c2cnn(C)c2)c1=O (stereo not drawn) | 101% and 99.6% | 105% and 97% | 105% and 113% | 112% and 109% | 112% and 119% | 88.7% and 91.8% |  |
| 6.04 µM and 4.85 µM | CC1(C)CCC(CN2CCN(c3ccc(C(=O)NS(=O)(=O)c4ccc(NCC5CCOCC5)c([N+](=O)[O-])c4)c(Oc4cnc5[nH]ccc5c4)c3)CC2)=C(c2ccc(Cl)cc2)C1 | 103% and 85% | 88.8% and 76.7% | 95.1% and 98.1% | 90% and 84% | 81.7% and 74.5% | 25.7% and 8.47% |  |
| 1.76 µM and 1.73 µM | CC1COCCN1c1cc(C2(S(C)(=N)=O)CC2)nc(-c2ccnc3[nH]ccc23)n1 (stereo not drawn) | 99.7% and 95.9% | 91.5% and 81.3% | 88.8% and 91.9% | 70.2% and 70% | 29.4% and 27.2% | 9.11% and 6.62% |  |
| > 1 µM | CCN1CCN(Cc2ccc(Nc3ncc(F)c(-c4cc(F)c5nc(C)n(C(C)C)c5c4)n3)nc2)CC1 | 82.7% and 83.1% | 77.4% and 78.6% | 64.9% and 69.7% | 59.8% and 52.3% |  |  | viability, T/C (compound 0.00316 µM): 101% and 89.8%; viability, T/C (compound 0.01 µM): 77.4% and 78.7% |
| 8.47 µM and 4.4 µM | COC1C=CCC(C)C(C)S(=O)(=O)NC(=O)c2ccc3c(c2)N(CC2CCC21)CC1(CCCc2cc(Cl)ccc21)CO3 (stereo not drawn) | 93.3% and 98.1% | 90.6% and 96.7% | 101% and 103% | 96.7% and 93.2% | 77.2% and 69.3% |  |  |
| 0.0801 µM and 0.152 µM | COc1c(OCCCN2CCOCC2)ccc2c3n(c(=NC(=O)c4cnc(N)nc4)nc12)CCN3 | 64.5% and 74.9% | 51.9% and 66.5% | 19.2% and 24.7% | 10.7% and 7.66% |  |  | viability, T/C (compound 0.00316 µM): 98.7% and 88.6%; viability, T/C (compound 0.01 µM): 87.2% and 84.5% |
| > 10 µM | O=C(c1cc(Cc2n[nH]c(=O)c3ccccc23)ccc1F)N1CCN(C(=O)C2CC2)CC1 | 99.6% and 98.6% | 94.2% and 88% | 91.3% and 90.8% | 87.9% and 100% | 93.2% and 101% | 73.2% and 66.8% |  |
